Source: ChEMBL document CHEMBL3885861, “Open TG-GATES”

Species: Rattus norvegicus
Experiment: Open TG-GATES - Regimen: Daily Repeat
Format: toxicity, organism-based, Sprague-Dawley
Design: regimen Daily Repeat, gender Male, age 6 weeks
Conditions: in vivo, po, route gavage; for APTT / Bas / Eos / Fbg / Hb / Ht / Lym / MCH / MCHC / MCV / Mono / Neu / PT / Plat / RBC / Ret / WBC: tissue Blood; for KIDNEY_L / KIDNEY_R / KIDNEY_TOTAL: tissue Kidney; for LIVER: tissue Liver; for A/G / ALP / ALT / AST / BUN / CRE / Ca / Cl / DBIL / GLC / IP / K / LDH / Na / PL / RALB / TBIL / TC / TG / TP / gamma-GTP: tissue Plasma
[1] = 0 mg/kg, 72 h, dose level Control, time 3 day
[2] = 0 mg/kg, […], dose level Control, time 7 day
[3] = 0 mg/kg, […], dose level Control, time 14 day
[4] = 0 mg/kg, […], dose level Control, time 28 day
[5] = 100 mg/kg, 72 h, dose level Low, time 3 day
[6] = 100 mg/kg, […], dose level Low, time 7 day
[7] = 100 mg/kg, […], dose level Low, time 14 day
[8] = 100 mg/kg, […], dose level Low, time 28 day

## CCCCNC(=O)NS(=O)(=O)c1ccc(C)cc1 [TOLBUTAMIDE]
[1]
  TERMINAL_BW: 235.2 g
  APTT: 16.5 s
  Bas: 0.2%
  Eos: 1%
  Fbg: 315.4 mg/dL
  Hb: 14 g/dL
  Ht: 43.2%
  Lym: 74.6%
  MCH: 20.4 pg
  MCHC: 32.4%
  MCV: 63 fL
  Mono: 2.2%
  Neu: 21.6%
  PT: 13 s
  Plat: 112.3 x10_4/uL
  RBC: 686.4 x10_4/ul
  Ret: 6.8%
  WBC: 101.6 x10_2/uL
  KIDNEY_L: 1 g
  KIDNEY_R: 1 g
  KIDNEY_TOTAL: 2 g
  LIVER: 10.6 g
  A/G: 0.9
  ALP: 1867 IU/L
  ALT: 51 IU/L
  AST: 75.2 IU/L
  BUN: 15 mg/dL
  CRE: 0.2 mg/dL
  Ca: 11.3 mg/dL
  Cl: 105.2 meq/L
  DBIL: 0.014 mg/dL
  GLC: 179 mg/dL
  IP: 8.9 mg/dL
  K: 4.1 meq/L
  LDH: 64.4 IU/L
  Na: 143.6 meq/L
  PL: 149.8 mg/dL
  RALB: 2.7 g/dL
  TBIL: 0.066 mg/dL
  TC: 79 mg/dL
  TG: 79.2 mg/dL
  TP: 5.7 g/dL
  gamma-GTP: 1 IU/L
[2]
  TERMINAL_BW: 272.6 g
  APTT: 17 s
  Bas: 0.4%
  Eos: 1%
  Fbg: 274.8 mg/dL
  Hb: 13.6 g/dL
  Ht: 41%
  Lym: 80%
  MCH: 20.8 pg
  MCHC: 33.3%
  MCV: 62.4 fL
  Mono: 2.6%
  Neu: 15.6%
  PT: 13 s
  Plat: 127.5 x10_4/uL
  RBC: 657.4 x10_4/ul
  Ret: 5.7%
  WBC: 127.9 x10_2/uL
  KIDNEY_L: 1.1 g
  KIDNEY_R: 1.1 g
  KIDNEY_TOTAL: 2.2 g
  LIVER: 12.8 g
  A/G: 0.9
  ALP: 1890.2 IU/L
  ALT: 43.2 IU/L
  AST: 69.2 IU/L
  BUN: 18.2 mg/dL
  CRE: 0.2 mg/dL
  Ca: 10.9 mg/dL
  Cl: 103.8 meq/L
  DBIL: 0.012 mg/dL
  GLC: 189.4 mg/dL
  IP: 8.1 mg/dL
  K: 4.1 meq/L
  LDH: 64.8 IU/L
  Na: 142.2 meq/L
  PL: 148.8 mg/dL
  RALB: 2.6 g/dL
  TBIL: 0.062 mg/dL
  TC: 67.2 mg/dL
  TG: 139.8 mg/dL
  TP: 5.6 g/dL
  gamma-GTP: 0.8 IU/L
[3]
  TERMINAL_BW: 338.7 g
  APTT: 17.6 s
  Bas: 0.2%
  Eos: 1%
  Fbg: 284 mg/dL
  Hb: 14.4 g/dL
  Ht: 43.7%
  Lym: 78.4%
  MCH: 19.9 pg
  MCHC: 32.8%
  MCV: 60.7 fL
  Mono: 1.8%
  Neu: 18%
  PT: 13 s
  Plat: 124.7 x10_4/uL
  RBC: 721.4 x10_4/ul
  Ret: 4.4%
  WBC: 108 x10_2/uL
  KIDNEY_L: 1.2 g
  KIDNEY_R: 1.3 g
  KIDNEY_TOTAL: 2.5 g
  LIVER: 15.3 g
  A/G: 0.8
  ALP: 1297.4 IU/L
  ALT: 37 IU/L
  AST: 66.4 IU/L
  BUN: 16.6 mg/dL
  CRE: 0.2 mg/dL
  Ca: 11 mg/dL
  Cl: 104.2 meq/L
  DBIL: 0.012 mg/dL
  GLC: 185.6 mg/dL
  IP: 7.1 mg/dL
  K: 3.9 meq/L
  LDH: 58.8 IU/L
  Na: 142.6 meq/L
  PL: 149 mg/dL
  RALB: 2.7 g/dL
  TBIL: 0.056 mg/dL
  TC: 72.8 mg/dL
  TG: 131.2 mg/dL
  TP: 5.8 g/dL
  gamma-GTP: 1 IU/L
[4]
  TERMINAL_BW: 414.9 g
  APTT: 18.4 s
  Bas: 0.2%
  Eos: 1%
  Fbg: 277 mg/dL
  Hb: 15.8 g/dL
  Ht: 47.1%
  Lym: 80.2%
  MCH: 19.4 pg
  MCHC: 33.4%
  MCV: 58 fL
  Mono: 2%
  Neu: 16%
  PT: 13.6 s
  Plat: 107.1 x10_4/uL
  RBC: 813.4 x10_4/ul
  Ret: 2.3%
  WBC: 117.4 x10_2/uL
  KIDNEY_L: 1.5 g
  KIDNEY_R: 1.5 g
  KIDNEY_TOTAL: 2.9 g
  LIVER: 15.9 g
  A/G: 0.8
  ALP: 1151.4 IU/L
  ALT: 40.6 IU/L
  AST: 62 IU/L
  BUN: 17 mg/dL
  CRE: 0.3 mg/dL
  Ca: 10.8 mg/dL
  Cl: 105.2 meq/L
  DBIL: 0.014 mg/dL
  GLC: 186.6 mg/dL
  IP: 6.7 mg/dL
  K: 4 meq/L
  LDH: 52 IU/L
  Na: 143.2 meq/L
  PL: 162.4 mg/dL
  RALB: 2.8 g/dL
  TBIL: 0.062 mg/dL
  TC: 78 mg/dL
  TG: 170 mg/dL
  TP: 6.3 g/dL
  gamma-GTP: 1.2 IU/L
[5]
  TERMINAL_BW: 233.9 g
  APTT: 20.4 s
  Bas: 0.2%
  Eos: 1.2%
  Fbg: 283.2 mg/dL
  Hb: 13.7 g/dL
  Ht: 42%
  Lym: 80.2%
  MCH: 20.2 pg
  MCHC: 32.7%
  MCV: 61.9 fL
  Mono: 2.2%
  Neu: 15.8%
  PT: 13.2 s
  Plat: 118.8 x10_4/uL
  RBC: 680.4 x10_4/ul
  Ret: 5.8%
  WBC: 98.1 x10_2/uL
  KIDNEY_L: 1 g
  KIDNEY_R: 1 g
  KIDNEY_TOTAL: 2 g
  LIVER: 11.3 g
  A/G: 0.9
  ALP: 1905.6 IU/L
  ALT: 46.2 IU/L
  AST: 73.8 IU/L
  BUN: 15 mg/dL
  CRE: 0.2 mg/dL
  Ca: 11.1 mg/dL
  Cl: 104.6 meq/L
  DBIL: 0.01 mg/dL
  GLC: 180.4 mg/dL
  IP: 8.4 mg/dL
  K: 3.9 meq/L
  LDH: 68.8 IU/L
  Na: 142.6 meq/L
  PL: 156.4 mg/dL
  RALB: 2.6 g/dL
  TBIL: 0.058 mg/dL
  TC: 77 mg/dL
  TG: 99.4 mg/dL
  TP: 5.5 g/dL
  gamma-GTP: 1 IU/L
[6]
  TERMINAL_BW: 273.5 g
  APTT: 16.9 s
  Bas: 0%
  Eos: 1%
  Fbg: 303.2 mg/dL
  Hb: 13.6 g/dL
  Ht: 40.9%
  Lym: 74.4%
  MCH: 20.4 pg
  MCHC: 33.2%
  MCV: 61.4 fL
  Mono: 2%
  Neu: 21.8%
  PT: 12.5 s
  Plat: 130 x10_4/uL
  RBC: 667 x10_4/ul
  Ret: 5.4%
  WBC: 123.8 x10_2/uL
  KIDNEY_L: 1.2 g
  KIDNEY_R: 1.2 g
  KIDNEY_TOTAL: 2.3 g
  LIVER: 12.8 g
  A/G: 0.9
  ALP: 1801.2 IU/L
  ALT: 43.8 IU/L
  AST: 68 IU/L
  BUN: 17.6 mg/dL
  CRE: 0.2 mg/dL
  Ca: 10.9 mg/dL
  Cl: 104.4 meq/L
  DBIL: 0.01 mg/dL
  GLC: 197.4 mg/dL
  IP: 7.9 mg/dL
  K: 4.1 meq/L
  LDH: 55.6 IU/L
  Na: 141.8 meq/L
  PL: 165.2 mg/dL
  RALB: 2.6 g/dL
  TBIL: 0.056 mg/dL
  TC: 79.6 mg/dL
  TG: 138.4 mg/dL
  TP: 5.5 g/dL
  gamma-GTP: 1.2 IU/L
[7]
  TERMINAL_BW: 313.3 g
  APTT: 18.6 s
  Bas: 0.2%
  Eos: 0.8%
  Fbg: 284.2 mg/dL
  Hb: 14.2 g/dL
  Ht: 43.5%
  Lym: 81%
  MCH: 19.5 pg
  MCHC: 32.6%
  MCV: 60 fL
  Mono: 1.8%
  Neu: 15.8%
  PT: 13.2 s
  Plat: 120.7 x10_4/uL
  RBC: 726.6 x10_4/ul
  Ret: 4.1%
  WBC: 100.3 x10_2/uL
  KIDNEY_L: 1.2 g
  KIDNEY_R: 1.2 g
  KIDNEY_TOTAL: 2.4 g
  LIVER: 13.1 g
  A/G: 0.8
  ALP: 1429.8 IU/L
  ALT: 37.2 IU/L
  AST: 67.4 IU/L
  BUN: 16.8 mg/dL
  CRE: 0.2 mg/dL
  Ca: 10.7 mg/dL
  Cl: 104.6 meq/L
  DBIL: 0.014 mg/dL
  GLC: 196.2 mg/dL
  IP: 7.1 mg/dL
  K: 3.8 meq/L
  LDH: 60.8 IU/L
  Na: 143.2 meq/L
  PL: 135 mg/dL
  RALB: 2.6 g/dL
  TBIL: 0.062 mg/dL
  TC: 61.6 mg/dL
  TG: 141.6 mg/dL
  TP: 5.7 g/dL
  gamma-GTP: 1.2 IU/L
[8]
  TERMINAL_BW: 400.3 g
  APTT: 17.5 s
  Bas: 0.6%
  Eos: 1.2%
  Fbg: 287.2 mg/dL
  Hb: 15.6 g/dL
  Ht: 46.6%
  Lym: 80.4%
  MCH: 18.8 pg
  MCHC: 33.5%
  MCV: 56.1 fL
  Mono: 2.4%
  Neu: 14.8%
  PT: 13.5 s
  Plat: 102.7 x10_4/uL
  RBC: 831.6 x10_4/ul
  Ret: 2.4%
  WBC: 116.4 x10_2/uL
  KIDNEY_L: 1.3 g
  KIDNEY_R: 1.3 g
  KIDNEY_TOTAL: 2.7 g
  LIVER: 15.8 g
  A/G: 0.8
  ALP: 1233.8 IU/L
  ALT: 38 IU/L
  AST: 63.8 IU/L
  BUN: 17.8 mg/dL
  CRE: 0.3 mg/dL
  Ca: 10.7 mg/dL
  Cl: 105.2 meq/L
  DBIL: 0.012 mg/dL
  GLC: 188.6 mg/dL
  IP: 6.7 mg/dL
  K: 3.9 meq/L
  LDH: 49.8 IU/L
  Na: 143 meq/L
  PL: 151.2 mg/dL
  RALB: 2.7 g/dL
  TBIL: 0.058 mg/dL
  TC: 68.8 mg/dL
  TG: 174.6 mg/dL
  TP: 6.2 g/dL
  gamma-GTP: 1 IU/L
